According to US11241455B2, “Methods of treating disease by metabolic control of T-cell differentiation” (The J. David Gladstone Institutes, a testamentary trust …, priority 2016, dated 2022):

How the values were obtained:
[1] = test system: FOXP3, Il17, Il17f, and Rorc mRNA in TH17 cells; assay: mRNA expression analysis by qRT-PCR in TH17 cells; type: cell-based, mouse; conditions: normalized to β-actin
Description: At the end of differentiation (day 6), T cells were re-stimulated with plate-coated anti-CD3 and anti-CD28 for 5 hours in the absence of any small-molecule compounds or metabolites. Quantitative reverse transcriptase polymerase chain reaction (qRT-PCR) was performed to evaluate mRNA expression of FOXP3, Il17, Il17f, and Rorc. For differentiating TH17 or iTreg cells, cells were collected on day 2.5 or at the indicated time for mRNA expression analysis. The expression was normalized to β-actin.

[2] = test system: EAE induced in C57BL/6 mice; assay: Mouse experimental autoimmune encephalitis (EAE) model; type: in vivo
Description: EAE was induced by immunizing mice (12 weeks old, 11-12 mice/group) twice with 300 μg of MOG35-55 peptide (amino acids 35-55; MEVGWYRSPFSROVHLYRNGK (SEQ ID NO: 2)) emulsified in complete Freund's adjuvant, followed by pertussis toxin injection and analyzed. The disease scores were assigned on a scale of 0-5 as follows: 0, none; 1, limp tail or waddling gait with tail tonicity; 2, wobbly gait; 3, hind limb paralysis; 4, hind limb and forelimb paralysis; 5, death. When the disease phenotype was very obvious (average score>1), PBS or (aminooxy)-acetic acid (AOA) (750 μg/mice) was intraperitoneal (i.p.) injected every day. After 8 days of administration of AOA or PBS, the mice were anesthetized, and cells infiltrated into brain and spinal cord were collected for analysis. When indicated, the statistical significance was determined by Student's t test (*, p<0.05; **, p<0.01; ***, p<0.001). All animal work was approved by the Institutional Animal Care and Use Committee (IACUC).
The in vitro findings that AOA regulates the TH17/iTreg balance prompted an investigation into the effects of AOA in vivo in the context of a pathologic TH17-dependent disease state. TH17 cells are the major pathogenic cell population in experimental autoimmune encephalomyelitis (EAE), a mouse model of multiple sclerosis, but FOXP3+regulatory T cells suppress TH17 cell-mediated inflammatory diseases, such as EAE. In the in vitro studies, AOA skewed TH17 differentiation towards FOXP3+ iTreg cells and, therefore, offers a potential to treat TH17-mediated autoimmune diseases. To test this possibility, EAE was induced in C57BL/6 mice by immunizing with myelin oligodendrocyte glycoprotein peptide (MOG35-55) in complete Freund's adjuvant (CFA) as described. AOA or control vehicle was injected daily intraperitoneally after a majority of the mice began to show obvious neurological signs, including tail paralysis that progressed to hind and front limb paralysis (disease score>1). […] The ratio of FOXP3+ cells to IL17+ cells is much higher in AOA-treated mice than in control mice (FIG. 4c).

[3] = test system: FOXP3 promoter and its intronic CpG island; assay: Methylation analysis by bisulfite sequencing, T cells under iTreg condition; type: cell-based, mouse; conditions: iTreg condition (day 5); 0.5 mM dimethyl R-2-HG or AOA; male mice
Description: The method is essentially the same as described previously (Kim, et al. J Exp Med 204 (7), 1543-1551 (2007)). Briefly, genomic DNA was purified with Blood & Cell Culture DNA Midi Kit (Qiagen). Bisufite conversion of genomic DNA was performed using Epitect® bisulfite kit (Qiagen), according to the manufacture's instruction. The PCR product was run on 2% agarose, purified and cloned using TOPO® TA Cloning® Kit with PCR®4. Clones are picked for Sanger sequencing.

[4] = test system: differentiating iTreg cells; assay: iTreg differentiation of CD4 naïve T cells (FOXP3-GFP reporter or intracellular staining of FOXP3); type: cell-based, mouse; conditions: AOA added after 24 hours, analyzed at end of differentiation
Description: CD4 naïve T cells (CD4+CD25-CD62^highCD44^low) were obtained from interleukin (IL)-17F-red fluorescent protein (RFP)/FOXP3-green fluorescent protein (GFP) mice, which were characterized previously, or wild-type C57/BL6 mice, by cell sorting. 0.4 million cells were plated into 48 wells coated with anti-mouse CD3 (clone 145-2C11, eBioscience) […] and anti-mouse CD28 (clone 37.51, eBioscience) (1 μg/ml). The differentiation media for these naïve T cells was as follows: 0.5 ng/ml (or indicated) transforming growth factor (TGF) β, 200 U/ml mouse IL-2, 2 μg/ml anti-interferon (IFN) γ and 2 μg/ml anti-mouse IL4 for differentiation into iTreg cells; and 2.5 ng/ml TGFβ, 10 ng/ml mouse IL-1β, 10 ng/ml mouse IL-6, 10 ng/ml mouse IL-23, 2 μg/ml anti-mouse IFNγ, and anti-mouse IL-4 for differentiating into TH17 cells. The cells were supplemented with new medium at day 4. In cases in which small-molecule compounds were present, the fresh medium containing the same concentration of compounds was used. When necessary, the individual metabolite was added into the T-cell culture 6 hours later after initial cell plating. […]

[5] = brain and spinal cord infiltrated T cells after 8 days of AOA 750 μg/mice i.p. daily, p<0.01

Compound: NOCC(=O)O [AOA, (aminooxy)-acetic acid]
- FOXP3 mRNA expression [1]: promoted transcription of FOXP3
- Il17/Il17f mRNA level ([1]; re-stimulated with anti-CD3 and anti-CD28 for 5 hours): selectively reduced the mRNA level of Il17/Il17f
- recovery from EAE diseases (disease scores, scale of 0-5) ([2]; 750 μg/mice i.p. every day, started when average score>1, versus PBS): significant recovery from EAE diseases
- ratio of FOXP3+ cells to IL17+ cells ([2]; AOA-treated mice versus control mice, CNS infiltrated T cells): much higher
- percentage of FOXP3+ T cells in the central nervous system [2, 5]: increased
- percentage of TH17 cells in the central nervous system [2, 5]: significantly reduced
- methylation level of FOXP3 promoter and its intronic CpG island [3]: dramatically decreased the methylation levels
- iTreg cell induction under iTreg differentiation conditions [4]: dose-dependently promote iTreg cell induction
